Patent US6495376B1, “Methods and compositions for regulating protein-protein interactions” (Beth Israel Deaconess Medical Center, priority 1999, dated 2002)

Tests used:
[1] = target: EQPLpTPVTDL (Cdc25 Peptide); test: Fluorescence anisotropy binding to fluorescein-labeled phosphorylated Cdc25 peptide; details: GST-WW-domains
[2] = target: […] (Cdc25 Peptide, nonphosphorylated); test: GST-WW-domain incubated with peptide on a membrane, immunoblotting with GST antibody; type: binding
[…] (Pro-Rich) = Fluorescence anisotropy binding to fluorescein-labeled Pro-rich peptide; details: GST-WW-domains; † estimated Kd, no plateau at 100 μM WW-domain
[3] = system: MPM-2 antigens (mitotic phosphoproteins) of mitotic HeLa cell extracts; test: GST pulldown from mitotic HeLa cell extracts, MPM-2 immunoblotting (phosphoprotein-binding activity); details: for Phosphoprotein binding activity: GST-fusion proteins with mitotic extracts, MPM2 antibody; for binding to mitotic phosphoproteins / MPM-2 antigens (in words): mitotic HeLa cell extracts; for effect of phosphorylation by PKA on interaction with MPM2 antigens: protein phosphorylated by PKA before binding
Description: GST-fusion proteins containing the WW-domain, PPIase-domain or the entire Pin 1 protein were prepared and incubated with interphase (G1/S arrested; Control) or dividing (M phase) HeLa cell extracts using well-known procedures (Lu, K. P., et al., Nature 380:544 (1996); (Shen, M., et al., Genes & Devl. 12:706 (1998)). Briefly, HeLa cells were arrested at the G1/S boundary or mitosis by incubation with thymidine and aphidicolin or nocodazole for 16 h, respectively. The cells were lysed and supernatants incubated with 10 μl of agarose beads containing GST-Pin1; GST-WW-domain of Pin1; GST-PPIase domain of Pin1; or control GST for 2 h at 4° C. The phosphorylated precipitated proteins were washed 5 times in buffer containing 1% Triton X-100 before subjecting to immunoblotting analysis using MPM-2 antibody, as described previously (Yaffe, M. B. et al., Science 278:1957 (1997); Schukowski, et al., Biochemistry 37:5566 (1998); Shen, M. et al., Genes & Dev 12:706 (1998)). MPM-2 recognizes a subset of mitotic phosphoproteins including Pin1-binding proteins such as cdc25.
Pintide and its nonphosphorylated counterpart were synthesized and incubated with GST-Pin1 or the GST-WW-domain of Pin1 in a binding buffer, using established procedures (Shen, M. et al., Genes & Dev 12:706 (1998)). After a 1 hr incubation, mitotic HeLa cell extracts were added and subjected to GST pull down experiments, followed by immunoblotting analysis using the MPM-2 antibody. To obtain semi-quantitative data, films of immunoblots were scanned at the region of 55 kDa, the major Pin1-binding protein, and data analyzed using ImageQuan (ScanJet II CX). The peptide binding constants were measured using a fluorescence polarization assay (Jiskoot, W. et al., Anal Biochem 196:421 (1991)). Peptides were fluorescein labeled at the N-terminus using the Fluorescein Amine Labeling Kit (Pan Vera Corp.) and purified by TLC according to the manufacturer's […]. To prevent nonspecific labeling, a Pintide analogue (WFYpSPFLE) SEQ ID NO: 8 and the nonphosphorylated control were used. Various concentrations of Pin1 and its mutant proteins were incubated with 0.1 μM of the labeled peptides in a binding buffer containing 50 mM HEPES, pH 7.4, 100 mM NaCl, 2% glycerol. Fluorescence polarization values were obtained using a Pan Vera Beacon 2000 system, as described by the manufacturer.
To examine the effect of Pin1 phosphorylation on Pin1 binding to ligands, Pin1 and Pin1 mutant proteins were incubated with the catalytic subunit of PKA and PKC (a mixture of α, β and γ, UBI) in a kinase reaction buffer containing 500 μM cold ATP at 30° C. for 15 min (Lu, K. P. et al., Anal. Biochem. 196:421 (1991)). The reactions were stopped by adding SDS sample buffer and reaction products separated on SDS-gels, followed by autoradiography. Pin1 proteins were isolated and used to bind MPM-2 antigens from mitotic extracts from HeLa cells, as previously described (Shen, M., et al., Genes & Dev 12:706 (1998)). Experiments were also performed with PKA and PKC, casein kinase, cyclin B/Cdc2 and SRPK1 kinases.

peptide substrate = test: PPIase activity assay with peptide substrate; type: biochemical; details: relative to wild-type protein defined as 100%
Cdc2 phosphorylated tau = test: Binding of Cdc2 phosphorylated tau to Taxol-stabilized microtubules; type: biochemical; details: Pin1 0.1 mg/ml, tau 0.1 mg/ml
Chain of Cdc2 phosphorylated tau (P10636 45-219 isoform P10636-2 limits assumed): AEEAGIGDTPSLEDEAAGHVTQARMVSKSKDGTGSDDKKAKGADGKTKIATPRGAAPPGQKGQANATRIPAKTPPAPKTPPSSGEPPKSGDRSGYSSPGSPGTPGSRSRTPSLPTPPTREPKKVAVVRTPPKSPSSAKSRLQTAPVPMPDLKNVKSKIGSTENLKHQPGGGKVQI
Excerpt: The high affinity interaction between Pin 1 and phosphorylated tau can affect the biological activity of tau. Upon phosphorylation by many protein kinases, including Cdc2, tau loses its ability to bind microtubules (MTs) and promote MT assembly (Bramblett, G. T. et al., Neuron 10:1089-1099 (1993); Iqbal, K. et al., FEBS Lett 349:104-108 (1994); Yoshida, H. and Ihara, Y. J Neurochem 61:1183-1186 (1993); Alonso, A. C. et al., Proc Natl Acad Sci USA 91:5562-5566 (1994); Busciglio, J. et al., Neuron 14:879-888 (1995)) although the exact mechanism is not fully understood. To determine whether Pin1 can restore the ability of phosphorylated tau to bind MTs, phosphorylated tau was produced using purified Cdc2 (Vincent, I. et al., J Cell Biol 132:413-425 (1996); Vincent, I. et al., J Neurosci 17:3588-3598 (1997)) and assessed for its ability to bind Taxol-stabilized MTs in the presence or absence of Pin1. […] Pin1 was detected in the fraction of tau-bound MTs confirming interaction between Pin1 and phosphorylated tau.
The effect of Pin1 on the ability of phosphorylated tau to promote MT assembly was determined using light-scattering assays (Bramblett, G. T. et al., Neuron 10:1089-1099(1993); Alonso, A. C. et al., Proc Natl Acad Sci USA 91:5562-5566 (1994); Busciglio, J. et al., Neuron 14:879-888 (1995)). […]

Substance	Kd [1] [µM]	Kd (μM) Cdc25 Peptide EQPLTPVTDL [2]	Kd (μM) Pro-Rich IPGTPPPNYD ([…] (Pro-Rich))	Phosphoprotein binding activity [3]	binding to mitotic phosphoproteins / MPM-2 antigens (in words) [3]	effect of phosphorylation by PKA on interaction with MPM2 antigens [3]	PPlase Activity (%) (peptide substrate)	restoration of binding of Cdc2 phosphorylated tau to MTs (Cdc2 phosphorylated tau)
Pin1 WW-domain: N-terminal WW-domain (amino acids 1-54) of Pin1 (MADEEKLPPGWEKRMSRSSGRVYYFNHITNASQWERPSGNSSSGGKNGQGEPAR; left off: a dimerising Fc or GST)	2.2	N.B.*	N.B.	+ (binding was detected)	strong binding	completely abolished		
Pin1: wild-type human prolyl isomerase (PPIase) Pin1 with N-terminal WW-domain; tag cleaved in Table 2				+ (binding was detected)	strong binding	completely abolished	100	binding was restored
